Test results published in US7427395B2, “Chemotherapeutic agent-incorporated pharmaceutical preparation” (Genomidea Inc., priority 2002, dated 2008).
Where two headings read alike, the source gives them in different places.

Tests used:
[1] = test system: mouse colon carcinoma cell CT26; details: 30 min at 37° C., counted 2 days later
Procedure: A microtube containing the sample was centrifuged at 15,000 rpm for 15 minutes at 4° C. to give the HVJ-E vector as a precipitate, and the supernatant was removed. […] Further, 2 μl of 3% Triton-X100 was added thereto to prepare a sample containing Triton-X100 at a final concentration of 0.1%, which was then left on ice for 15 minutes. Thereafter, 500 μl PBS solution was added thereto. The microtube was centrifuged at 15,000 rpm for 15 minutes at 4° C., and the supernatant was removed without removing the precipitate, and 500 μl PBS solution was added again to the precipitate. The microtube was centrifuged again at 15,000 rpm for 15 minutes at 4° C., and the supernatant was removed without removing the precipitate.
The resulting precipitate was suspended in 180 μl PBS, and the resulting sample solution was pipetted in a volume of 30 μl/microtube into 6 microtubes. Five microlitters of protamine sulfate solution prepared at 5 mg/ml and 500 μl DMEM solution (Dulbecco's modified Eagle medium) were added to each tube.
The above sample solution was added to mouse colon carcinoma cell CT26 prepared on a 6-well plate. The plate was kept for 30 minutes in an incubator at 37° C., and then the medium was exchanged with 500 μl medium (DMEM containing 10% FCS). The cells were incubated for 2 days in a CO2 incubator at 37° C. Two days later, the number of viable cells was counted to evaluate the anticancer effect.

colon carcinoma CT26 = assay: In vivo experiment: tumor volume of subcutaneously transplanted CT26 after administration into the tumor (Example 2); details: for average tumor volume (mean): 100 μl/mouse into the tumor, n=8
Procedure: A microtube containing the sample was centrifuged at 15,000 rpm for 15 minutes at 4° C. to give the HVJ-E vector as a precipitate, and the supernatant was removed. […] Further, 2 μl of 3% Triton-X100 was added thereto to the final concentration of 0.1%, which was then kept on ice for 15 minutes. Thereafter, 500 μl PBS solution was added thereto. The microtube was centrifuged at 15,000 rpm for 15 minutes at 4° C., and the supernatant was removed without removing the precipitate, and 500 μl PBS solution was added thereto. The microtube was centrifuged again at 15,000 rpm for 15 minutes at 4° C., and the supernatant was removed without removing the precipitate. The resulting precipitate was suspended in 120 μl PBS.
In this animal experiment, BALB/c mice (8-week-old, male) were used. […] The CT-26 cells to be transplanted were suspended in DMEM medium containing 10% FCS, and 5×10^6 cells (100 μl PBS/mouse) were transplanted in the back. The mice were anesthetized by intraperitoneal administration of 500 μl of 20-fold-diluted Nembutal injection. The volume of the transplanted cancer cells was estimated by calculation of major axis×minor axis×minor axis/2. When the diameter of the tumor reached 7 to 8 mm one week after transplantation, 100 μl of the sample prepared above was administered into the site of the cancer in the mouse. On Days 7, 10, 13, 16 and 19 (that is, 3-day intervals) after transplantation of the cancer cells, the tumor diameter was measured to evaluate the anticancer effect. The number of animals was 8 in each group.

[2] = test system: Mouse colon cancer-derived CT-26 cells; assay: In vivo experiment (2): tumor volume and tumor weight of transplanted CT-26, HVJ-E/BLM into the tumor with or without intraperitoneal CDDP (Example 3); parameters: species or system BALB/cAnNCrj male mice
[3] = Day 16 (9 days after sample administration)

Row | Compound | Number of viable cells (mean) ([1]; 1/50 bleomycin group: bleomycin 50 μg/DMEM 500 μl/well) | Number of viable cells (mean) ([1]; 1/500 bleomycin group: bleomycin 5 μg/DMEM 500 μl/well) | Number of viable cells (mean) ([1]; 1/500 bleomycin group: bleomycin 5 μg/DMEM 500 μl/well, listed as bleomycin) | Number of viable cells (mean) ([1]; 1/5,000 bleomycin group: bleomycin 500 ng/DMEM 500 μl/well) | Number of viable cells (mean) ([1]; 1/5,000 bleomycin group: bleomycin 500 ng/DMEM 500 μl/well, listed as bleomycin) | average tumor volume (mean) (colon carcinoma CT26; Day 7 (time of sample administration)) [mm^3] | average tumor volume (mean) (colon carcinoma CT26; Day 10 (Day 3 after sample administration)) [mm^3] | average tumor volume (mean) (colon carcinoma CT26; Day 13) [mm^3] | tumor volume shrinkage effect relative to the PBS administration group (0%) (colon carcinoma CT26; [3]) [%] | average tumor volume (mean) (colon carcinoma CT26; [3]) [mm^3] | average tumor volume (mean) (colon carcinoma CT26; Day 16 (9 days after sample administration), listed as BLM) | antitumor effect in vivo (in words) (colon carcinoma CT26; direct administration into the solid tumor) | tumor weight on Day 21 after administration ([2]; CDDP 0.2 mg/body i.p. once, alone or with 13 mg/tumor HVJ-E/BLM into the tumor) [mg] | average tumor volume on Day 21 ([2]; CDDP 0.2 mg/body i.p. once, alone or with 13 mg/tumor HVJ-E/BLM into the tumor, 10 mice) [mm^3] | tumor weight on Day 21 after administration ([2]; CDDP 0.4 mg/body i.p. once, alone or with HVJ-E into the tumor) [mg] | average tumor volume on Day 21 ([2]; CDDP 0.4 mg/body i.p. once, 3 mice) [mm^3]
1 | bleomycin | 81800 | 164600 | 164,600 | 196800 | 196,800 | 158.4 | 413.70 | 754.7 | 3.4 | 1234.6 | 1,235 mm^3 | Antitumor effect was hardly recognized | – | – | – | –
2 | [NH2][Pt]([NH2])([Cl])[Cl] [CDDP, cisplatin] | – | – | – | – | – | – | – | – | – | – | – | – | 1619.79 | 1720.14 | 1164.13 | 1367.62
